From ChEMBL document CHEMBL1130804, “Potent antimitotic and cell growth inhibitory properties of substituted chalcones” (Bioorg Med Chem Lett, 1998)
pIC50: −log10 of the molar value.

Tests used:
Tubulin alpha chain = Tubulin alpha chain (Sus scrofa, UniProt P02550); assay: Tested for inhibition of polymerization of tubulin
K562 = assay: Compound was evaluated for cytotoxic activity against K562 human chronic myelogenous leukemia cell line using MTT assay; assay type: functional, cell-based
HeLa = assay: Compound was evaluated for cytotoxic activity against HeLa S3 cell line; assay type: functional, cell-based; settings: Homo sapiens

Sequence of Tubulin alpha chain (P02550 whole entry, looked up): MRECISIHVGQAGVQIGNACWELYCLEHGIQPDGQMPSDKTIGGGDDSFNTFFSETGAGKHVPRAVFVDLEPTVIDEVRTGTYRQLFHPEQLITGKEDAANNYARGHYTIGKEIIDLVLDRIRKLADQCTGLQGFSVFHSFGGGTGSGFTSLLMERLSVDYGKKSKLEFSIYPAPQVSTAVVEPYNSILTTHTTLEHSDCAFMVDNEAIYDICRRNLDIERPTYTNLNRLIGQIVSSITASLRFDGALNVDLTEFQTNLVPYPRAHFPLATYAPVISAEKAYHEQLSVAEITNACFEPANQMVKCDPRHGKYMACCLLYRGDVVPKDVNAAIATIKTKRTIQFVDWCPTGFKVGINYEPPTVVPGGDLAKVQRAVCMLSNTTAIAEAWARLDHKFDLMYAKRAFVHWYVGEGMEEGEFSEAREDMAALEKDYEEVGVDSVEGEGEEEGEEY

Structure (SMILES) | pIC50 (Tubulin alpha chain) | pIC50 (K562) | pIC50 (HeLa)
COc1ccc(OC)c(C(=O)/C(C)=C/c2ccc(N(C)C)cc2)c1 | 7.92 | 7.96 | –
COc1ccc(OC)c(C(=O)/C=C/c2ccc(N(C)C)cc2)c1 | – | 7.44 | –
COc1cc(C(=O)/C(C)=C/c2ccc3c(c2)OCO3)cc(OC)c1OC | – | 7.85 | –
COc1ccc(/C=C(\C)C(=O)c2cc(OC)c(OC)c(OC)c2)cc1O | – | 9.68 | 9.21
COc1cc(C(=O)/C=C/c2ccc3c(c2)OCCO3)cc(OC)c1OC | – | 7.10 | –
COc1cc(C(=O)/C=C/c2ccc3c(c2)OCO3)cc(OC)c1OC | – | 6.52 | –
COc1ccc(/C=C/C(=O)c2cc(OC)c(OC)c(OC)c2)cc1O | – | 8.37 | –
COc1cc(C(=O)/C(C)=C/c2ccc3c(c2)OCCO3)cc(OC)c1OC | – | 7.92 | –
